Assay: membrane/water partition coefficient calculated from CV peak current ratio of uncoated and PVC membrane-coated GC electrode (Equation 1)
Assay type: physicochemical

CC(=O)Nc1ccc(O)cc1 [APAP, 4-acetamidophenol]
Pmw (membrane/water partition coefficient) (PVC membrane I (o-NPOE), Cw=1 mM, iw/im ~140, Dm=4×10^−8 cm^2/s, Dw=8×10^−6 cm^2/s): 0.1
Pmw (membrane/water partition coefficient) (membrane III (DOS), same protocol): 0.5
Pmw (membrane/water partition coefficient) (membrane V (1-octanol), same protocol): 1.6

From US11375929B2, “Method and device for detection of bioavailable drug concentration in a fluid sample” (THE UNIVERSITY OF TENNESSEE RESEARCH FOUNDATION, priority 2008, dated 2022)
